The nature of one data set: physchem. The following applies: pH 7.4, aqueous buffer, kinetic from dmso stock. The method, then:
(§1) The supernatant was collected, diluted 1:1 with methanol, and drug concentrations measured by HPLC (Agilent 1100 series, UV detection) relative to standard curves. The polar surface area and log P were calculated using Molinspiration Cheminformatics (V2018.10, USA). Plasma protein binding was determined by equilibrium dialysis assays. Drug plasma samples were prepared to achieve a final concentration of 5 μM in human blood plasma by 500-fold dilution of 2.5 mM DMSO-drug stocks. Plasma solutions (300 μl) and PBS, pH 7.4 (500 μl), were added to adjacent chambers of Rapid Equilibrium Dialysis units (Thermo Scientific; 8K MWCO). Plates were sealed with plastic film and shaken on an orbital shaker at 225 rpm at 37° C. for 4.5 hr. Plasma and PBS samples were collected, and drugs extracted with a zinc sulfate/methanol precipitation method. After centrifugation at 3,300 rpm for 10 min, soluble drugs in methanol supernatants were analyzed by Liquid Chromatography (LC) Electrospray Ionization (ESI) Mass Spectrometry (LC-ESI-MS) (Agilent 1100 series, Santa Clara, USA) and quantified relative to standard curves.

Another data set is described as follows: in vitro. The following applies: human, pH 7.4. As to the method:
as §1

The next data set can be described thus: clinical. On the set-up: species or system human. The following applies: in vivo. The method, then:
The study was conducted at a clinical research facility for investigational medicines (Celerion, Arizona, USA) as part of a clinical Phase 1 single-ascending-dose (SAD) study and followed all FDA ethical guidelines. Patients were selected according to standardized inclusion/exclusion criteria for a Phase I SAD study. Healthy volunteers 18-55 years of age with no evidence of ongoing disease (as determined by the study investigator), or any use of nicotine (30 days prior to screening), or drugs of abuse (within the preceding 2 years), or use of chronic prescription medication (within 30 days), or acute prescription medication (within 14 days), or systemic over-the-counter medications including vitamins and herbal/natural supplements (within 7 days prior to the study dose) were enrolled in the study. The SMEDDS was dispensed (approximately 3 ml) into a 100 ml Gibco clear bottle and a 15-fold excess of filtered water (HPLC grade) was added. The mixture was swirled gently for 1-2 minutes until fully dispersed. The SMEDDS in-water dose was placed in the refrigerator and orally administered within 2 hours. […] Samples were immediately frozen and analyzed by LC-ESI-MS within 5 days. Briefly, whole blood samples were thawed and extracted using a zinc sulfate/methanol precipitation method.

Another data set is described as follows: in vivo. The arrangement: species or system Sprague Dawley rats. Conditions: Sprague Dawley, rat, po, 30 mg/kg/day, liver level relative to whole blood. The method, then:
SERIES 1 1/3/3/2/9 (Vitamin E/Maisine® CC/Propylene Glycol/Ethanol/Cremophor® RH40 (w/w/w/w/w)) CRV431 SMEDDS (50 mg/ml) was administered to Sprague Dawley rats (n=6) by oral gavage at 30 mg/kg/day for 7 days. At 12 hours post-dose on day 7, the animals were sacrificed and whole blood and livers were extracted and frozen. CRV431 was quantitated in whole blood using LC-ESI-MS (as for the human pharmacokinetic studies). For quantitation of CRV431 in liver, one gram samples of liver tissue were added to 9 ml of homogenizing solution (1% formic acid in water) and homogenized using a TissueLyser (Qiagen) at 30 Hz for 10 minutes. Aliquots were removed and analyzed by LC-ESI-MS as described above.

The structures appear in SMILES notation. Several values for one entry are separate records, joined by “and”; a condition that tells them apart may be missing. Equal values may be shown once. Where a SMILES comes first, the peptide text is derived from it. [ ]: non-standard residue; d: D form. NMeThr(4R-Me,4-(CH2)6NHAc) = CN[C@H](C(=O)O)[C@H](O)[C@H](C)CCCCCCNC(C)=O; NMeL = CN[C@@H](CC(C)C)C(=O)O; NMeV = CN[C@H](C(=O)O)C(C)C; dNMeA = CN[C@H](C)C(=O)O; Abu = CC[C@H](N)C(=O)O

Here are results for one molecule from patent US20250057807A1, “TREATING A DISEASE USING A […] ACTIVE INGREDIENT PRESENT IN A PSEUDO-TERNARY PHASE SYSTEM” (Hepion Pharmaceuticals, Inc., priority 2018, published 2025).

Broadly, the solubility is the dissolved amount per volume that the medium holds. The fraction unbound is free concentration divided by total concentration. Low readings indicate extensive binding, high ones weak binding. Broadly, the half-life is the time in which the quantity being followed falls by half. A low value points to rapid decline. One may read the Cmax as the highest concentration seen after dosing. As usually defined, the Kp is the ratio of the level in a tissue or fluid to that in plasma or blood. On to `CC[C@@H]1NC(=O)[C@H]([C@H](O)[C@H](C)CCCCCCNC(C)=O)N(C)C(=O)[C@H](C(C)C)N(C)C(=O)[C@H](CC(C)C)N(C)C(=O)[C@H](CC(C)C)N(C)C(=O)[C@@H](C)NC(=O)[C@H](C)NC(=O)[C@H](CC(C)C)N(C)C(=O)[C@H](C(C)C)NC(=O)[C@H](CC(C)C)N(C)C(=O)[C@@H](C)N(C)C1=O` [CRV431] (cyclo(A[dA][NMeL][NMeL][NMeV][NMeThr(4R-Me,4-(CH2)6NHAc)][Abu][dNMeA][NMeL]V[NMeL])), for which the solubility in the data set “physchem” is 115 µg/mL and 115 µM. The same molecule showed a free fraction (fraction unbound) at 4.5 hr, 5 μM in “in vitro” of 0.076. This molecule also showed a half-life in “clinical” (human) of around 100 h. Further, the Cmax in “clinical” (human, po, 1 mg/kg) was 334 ± 106 ng/mL. Further, in “clinical” (2.5 mg/kg), the “Cmax relative to Neoral®” value is listed as “slightly greater than Neoral®” and the “overall exposure (AUC) relative to Neoral®” value is “approximately 14 times”. The concentration ratio (Kp) in “in vivo” worked out at 6.5.
